Molecules are shown by their SMILES.

One test has as its system K+-depolarized isolated guinea pig ileal segment. Nature of the test: Calcium antagonism, guinea pig ileum (in vitro). To be noted: Cavia porcellus; reference agents; K+-depolarized ileal segment in Ca-free physiological salt solution, 37° C., added calcium 20 μg/ml CaCl; read-out: ED100 (inhibition of contractile response to added calcium). From the text:
Calcium Antagonism, Guinea Pig Ileum (in Vitro):
Take `CN(C)CCOC(c1ccccc1)c1ccccc1` [diphenhydramine]: the IC100 amounted to 1 µg/mL. The same measure, in the same setting: the figure for `COc1ccc(CN(CCN(C)C)c2ccccn2)cc1` [mepyramine] is more than 5 µg/mL; for `COc1ccc([C@@H]2Sc3ccccc3N(CCN(C)C)C(=O)[C@@H]2OC(C)=O)cc1` [diltiazem] it is 0.01 µg/mL. Regarding `CN1CCC(=C2c3ccccc3C=Cc3ccccc32)CC1` [cyproheptadine], the IC100 is 0.025 µg/mL. Still for that read-out and setting: the figure for `Fc1ccc(C(c2ccc(F)cc2)N2CCN(C/C=C/c3ccccc3)CC2)cc1` [flunarizine] is 0.1 µg/mL. `COc1ccc(Cc2nccc3cc(OC)c(OC)cc23)cc1OC` [papaverine]: the IC100 was 4 µg/mL.

`CC(C)NCC(O)COc1cccc2ccccc12` (stereo not shown) [propranolol]: the IC100 was determined as 4 µg/mL. Same read-out and setting: the figure for `CC(CN1c2ccccc2Sc2ccccc21)N(C)C` (stereo not shown) [promethazine] is 0.25 µg/mL.

The test is the same for the next values; noted with them: reference agents; K+-depolarized ileal segment in Ca-free physiological salt solution, 37° C., added calcium 20 μg/ml CaCl.
Regarding `CC(C)[N+]1(C)[C@@H]2CC[C@H]1CC(OC(=O)C(CO)c1ccccc1)C2.[Br-]` (stereo partly shown) [ipratropium bromide], the ED100 (inhibition of contractile response to added calcium) is more than 2 µg/mL.

`CC(COc1ccccc1)NC(C)C(O)c1ccc(O)cc1` (stereo not shown) [isoxuprine]: the ED100 (inhibition of contractile response to added calcium) came to 4 µg/mL. Same read-out and setting: the figure for `C(=C\c1ccccc1)/CN1CCN(C(c2ccccc2)c2ccccc2)CC1` [cinnazrizine] is 1 µg/mL.

For the next test, the system named is potassium-depolarized rat aorta.
Experiment: not given
To be noted: in vitro; cited from earlier work.
On to `CCOC(=O)C1=C(COCCN)NC(C)=C(C(=O)OC)C1c1ccccc1Cl` (single isomer, unassigned; isomer 3) [(−) isomer, 3-ethyl 5-methyl (−)-2-[2-aminoethoxy)methyl]-4-(2-chlorophenyl)-1,4-dihydro-6-methyl-3,5-pyridine dicarboxylate], for which the “activity relative to the racemic mixture in antagonizing calcium-induced constriction” value was “twice as active as the racemic mixture”.

The next test deals with β-adrenergic.
Experiment: not given
To be noted: L-form versus D-enantiomer; cited from earlier work.
For `CC(C)NC[C@H](O)COc1cccc2ccccc12`, the “potency relative to the D-enantiomer” value is given as 100 times.

The values are drawn from US6753338B2, “Methods for treating hypertension, angina, and congestive heart failure using of optically pure (-) amlodipine” (Sepracor Inc., priority 1991, dated 2004).
